Measured values from patent publication US20080311589A1, “METHOD OF HIGH-THROUGHPUT SCREENING OF MOLECULES AND COMPOUNDS FOR THEIR EFFECTS ON BIOLOGICAL AND CHEMICAL PROCESSES” (priority 1999, published 2008).
Peptide text beside a SMILES is read from it.

Experiments:
[1] = test system: 6F mink lung epithelial cells; assay: anti-BrdU cytoblot for suppressors of rapamycin; format: cell-based
From the text: FIG. 9. […] A 4 mm scale bar is shown. […] A 4 mm scale bar is shown.

[2] = test system: Mv1Lu mink lung epithelial cells; assay: 384 well anti-BrdU cytoblot; format: cell-based; details: 384-well plate; antiproliferative agents 24 hours, then 10 μM BrdU 16 hours (FIG. 2)
From the text: FIG. 1. An immunodetection assay for DNA synthesis in high density arrays of mammalian cells. (a) Cartoon depiction of an anti-BrdU cytoblot. The thymine analog 5-bromodeoxyuridine (BrdU) is incorporated into the DNA of cells that are actively replicating their DNA. The cells are in the well, and BrdU is detected with a two step antibody binding procedure. The second antibody is conjugated to the enzyme horseradish peroxidase. In the presence of the chemiluminescent substrate luminol as well as hydrogen peroxide, light of wavelength 428 nm is generated. The light emission can be detected by exposing the plate to film. (b) A cytoblot can detect TGF-β's ability to prevent BrdU incorporation in mink lung epithelial cells. 2000 Mv1Lu mink lung epithelial cells were seeded in each well of a white, opaque 384 well plate. The cells were seeded in the indicated concentrations of TGF-β in 50 μL of DMEM with 1% fetal bovine serum (FBS), 100 units/mL penicillin G sodium, 100 μg/mL streptomycin sulfate and 100 μM each of the amino acids alanine, aspartic acid, glutamine, glycine, asparagine and proline (referred to throughout as 1% mink medium) and allowed to incubate at 37° C. with 5% CO2. After 16 hours, 5.5 μL of 100 μM BrdU in 1% mink medium was added to each well, for a final concentration of 10 μM BrdU. The cells were incubated at 37° C. with 5% CO2 for an additional 16 hours and then an anti-BrdU cytoblot protocol was performed (see protocol). Wells shown are magnified 4×.
FIG. 2. A cytoblot can detect the ability of numerous antiproliferative agents to inhibit BrdU incorporation. 2000 Mv1Lu mink lung epithelial cells were seeded in each well of a white, opaque 384 well plate. The cells were seeded in 40 μL of 1% mink media and immediately 40 μL of 2× stocks of the reagents shown was added to each well and the cells were allowed to incubate at 37° C. with 5% CO2. After 24 hours, 9 μL of 100 μM BrdU in 1% mink medium was added to each well, for a final concentration of 10 μM BrdU. The cells were incubated at 37° C. with 5% CO2 for an additional 16 hours and then an anti-BrdU cytoblot protocol was performed (see protocol). Wells shown are magnified 2.5×.
The ability of the cytoblot assay to detect changes in DNA synthesis was tested by measuring the incorporation of 5-bromodeoxyuridine (BrdU, Sigma Corporation, St. Louis, Mo., Cat.# B9285) into DNA in the presence or absence of the anti-mitogen transforming growth factor β (TGF-β). Mink lung cells, which are responsive to TGF-β, were seeded into each well of an opaque, white 384-well plate. The cells were subsequently treated with varying concentrations of TGF-β for 16 hours and then with 10 μM BrdU for 16 hours. […] The following protocols provide experimental detail. […]

[3] = test system: hyperacetylated histone H4; assay: 384 well anti-acetylated histone H4 cytoblot; format: cell-based, human; details: A549 cells; 300 nM trichostatin A, 100 nM trapoxin, 24 hours
Procedure: FIG. 5. An immunodetection assay for the accumulation of hyperacetylated histone H4 in high density arrays of mammalian cells. A549 human lung carcinoma cells were seeded at a density of 4000 cells in 40 μL of DMEM+ in each well of an opaque 384 well plate and incubated overnight at 37° C. with 5% CO2. Cells were either untreated, washed once and treated with 0.5% serum, 80 pM TGF-β, 300 nM trichostatin A, 100 nM trapoxin or 250 nM nocodazole and incubated for 24 hours at 37° C. with 5% CO2 in a final volume of 50 μL. A cytoblot was performed (see Protocol) and the presence of the hyperacetylated form of histone H4 was detected using a two step antibody binding procedure using an anti-acetylated H4 antibody and a secondary antibody conjugated to the enzyme horseradish peroxidase. Wells are shown magnified 25×.
Any post-translational modification that can be recognized by an antibody (or ligand) may be used in a cytoblot screen. […] In addition, antibodies against the phosphorylated form of nucleolin (FIG. 6a) or histone H3 (FIG. 6b) were used to detect the presence of phosphonucleolin or phosphohistone H3 respectively, both of which server as biochemical markers of the mitotic state of cells (Anderson et al. Experimental Cell Research 238: 498-502 1998; Vincent et al. J. Cell. Biol. 132:413-425. 1996)). The following protocol provides experimental detail. […]

C=CC[C@@H]1/C=C(\C)C[C@H](C)C[C@H](OC)[C@H]2O[C@@](O)(C(=O)C(=O)N3CCCC[C@H]3C(=O)O[C@H](/C(C)=C/[C@@H]3CC[C@@H](O)[C@H](OC)C3)[C@H](C)[C@@H](O)CC1=O)[C@H](C)C[C@@H]2OC [FK506] was tested, and the “excess of FK506 that suppresses the antiproliferative effect of rapamycin” value ([1]; rapamycin and FK506 together 16 hours, then with BrdU 16 hours) was 30-100 fold.
With CO[C@H]1C[C@@H]2CC[C@@H](C)[C@@](O)(O2)C(=O)C(=O)N2CCCC[C@H]2C(=O)O[C@H]([C@H](C)C[C@@H]2CC[C@@H](O)[C@H](OC)C2)CC(=O)[C@H](C)/C=C(\C)[C@@H](O)[C@@H](OC)C(=O)[C@H](C)C[C@H](C)/C=C/C=C/C=C/1C [rapamycin] the “concentration that prevents BrdU incorporation” value ([1]; 6F mink lung cells) was 20 nM.
In the case of O=C(CCCCC[C@@H]1NC(=O)[C@H]2CCCCN2C(=O)[C@H](Cc2ccccc2)NC(=O)[C@H](Cc2ccccc2)NC1=O)C1CO1 (stereo partly shown) [trapoxin, trapoxin A] (HELM PEPTIDE1{F.F.[O=C([C@H]1CCCCN1[*:1])[*:2]].[O=C(CCCCC[C@H](N[*:1])C(=O)[*:2])C1CO1]}$PEPTIDE1,PEPTIDE1,1:R1-4:R2$$$V2.0), the BrdU incorporation [2] was “effectively prevent BrdU incorporation” and the “acetylation of histone H4” value [3] was “increase in the acetylation of histone H4”.
